System: 935938-334-R-J1-PDC complex spheroid viability
Assay: Anticancer human tumor 935938-334-R-J1-PDC patient-derived small intestine adenocarcinoma cell line growth inhibition [POLQ]
Conditions: for IC50: curve of first compound; for viability, T/C: stronger effect = lower value
Summary of the method: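 Three-cell-type spheroids modelling solid tumor plus stroma served as the readout system; POL inhibitors were tested individually and in combination, concentration ranges set by clinical Cmax where known.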

[1] = second compound 0.0316 µM, first compound 0.0316 µM
[2] = second compound 0.0316 µM, first compound 0.1 µM
[3] = second compound 0.0316 µM, first compound 0.316 µM
[4] = second compound 0.0316 µM, first compound 1 µM
[5] = second compound 0.0316 µM, first compound 3.16 µM
[6] = second compound 0.0316 µM, first compound 10 µM
[7] = second compound 0.1 µM, first compound 0.0316 µM
[8] = second compound 0.1 µM, first compound 0.1 µM
[9] = second compound 0.1 µM, first compound 0.316 µM
[10] = second compound 0.1 µM, first compound 1 µM
[11] = second compound 0.1 µM, first compound 3.16 µM
[12] = second compound 0.1 µM, first compound 10 µM
[13] = second compound 0.316 µM, first compound 0.0316 µM
[14] = second compound 0.316 µM, first compound 0.1 µM
[15] = second compound 0.316 µM, first compound 0.316 µM
[16] = second compound 0.316 µM, first compound 1 µM
[17] = second compound 0.316 µM, first compound 3.16 µM
[18] = second compound 0.316 µM, first compound 10 µM
[19] = second compound 1 µM, first compound 0.0316 µM
[20] = second compound 1 µM, first compound 0.1 µM
[21] = second compound 1 µM, first compound 0.316 µM
[22] = second compound 1 µM, first compound 1 µM
[23] = second compound 1 µM, first compound 3.16 µM
[24] = second compound 1 µM, first compound 10 µM
[25] = second compound 3.16 µM, first compound 0.0316 µM
[26] = second compound 3.16 µM, first compound 0.1 µM
[27] = second compound 3.16 µM, first compound 0.316 µM
[28] = second compound 3.16 µM, first compound 1 µM
[29] = second compound 3.16 µM, first compound 3.16 µM
[30] = second compound 3.16 µM, first compound 10 µM
[31] = second compound 10 µM, first compound 0.0316 µM
[32] = second compound 10 µM, first compound 0.1 µM
[33] = second compound 10 µM, first compound 0.316 µM
[34] = second compound 10 µM, first compound 1 µM
[35] = second compound 10 µM, first compound 3.16 µM
[36] = second compound 10 µM, first compound 10 µM
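Note: spheroids exposed to drugs for seven days before viability read.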
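Throughout, for viability, T/C: 100% = DMSO vehicle control wells.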

In the case of `CC1COCCN1c1cc(-c2ccnn2C)c2ccnc(-c3ccn[nH]3)c2n1` (stereo not drawn) + COC1C(OC(N)=O)C(O)C(Oc2ccc3c(O)c(NC(=O)c4ccc(O)c(CC=C(C)C)c4)c(=O)oc3c2C)OC1(C)C, the IC50 (second compound 0.0316 µM) is reported as 72.7 nM, the IC50 (second compound 0.1 µM) is reported as 59.2 nM and the IC50 (second compound 0.316 µM) is reported as 136 nM. It also gave an IC50 (second compound 1 µM) of 51.2 nM, an IC50 (second compound 3.16 µM) of 93 nM and an IC50 (second compound 10 µM) of 80.8 nM. The viability, T/C [1] was 73.1%, the viability, T/C [2] was 41% and the viability, T/C [3] was 20.7%. It also gave a viability, T/C [4] of 13.7%, a viability, T/C [5] of 13.8% and a viability, T/C [6] of 16.3%. For the same compound, the viability, T/C [7] was 66.6%, the viability, T/C [8] was 36% and the viability, T/C [9] was 20.7%. For the same compound, the viability, T/C [10] was 14.3%, the viability, T/C [11] was 16.4% and the viability, T/C [12] was 19.7%. It also gave a viability, T/C [13] of 73.1%, a viability, T/C [14] of 61% and a viability, T/C [15] of 19.9%. It also gave a viability, T/C [16] of 15%, a viability, T/C [17] of 18% and a viability, T/C [18] of 21.3%. It also gave a viability, T/C [19] of 59.7%, a viability, T/C [20] of 36.5% and a viability, T/C [21] of 18.8%. It also gave a viability, T/C [22] of 14.9%, a viability, T/C [23] of 14.8% and a viability, T/C [24] of 20.3%. For the same compound, the viability, T/C [25] was 78.9%, the viability, T/C [26] was 48% and the viability, T/C [27] was 19.4%. For the same compound, the viability, T/C [28] was 15%, the viability, T/C [29] was 18.9% and the viability, T/C [30] was 16.1%. The viability, T/C [31] was 74.9%, the viability, T/C [32] was 44.1% and the viability, T/C [33] was 24.4%. It also gave a viability, T/C [34] of 14.4%, a viability, T/C [35] of 14.7% and a viability, T/C [36] of 20.7%.

Work on `COc1cccc(OCCCN)c1-c1cc(Nc2cnc(C#N)cn2)n[nH]1` + Nc1ccc(C#CCN(C(=O)Cc2ncc(C(F)(F)F)cc2C(F)(F)F)c2ccc(F)cc2)nn1 yielded an IC50 (second compound 0.0316 µM) of 36.6 nM, an IC50 (second compound 0.1 µM) of 61.6 nM and an IC50 (second compound 0.316 µM) of 31.7 nM. For the same compound, the IC50 (second compound 1 µM) was 38.8 nM, the IC50 (second compound 3.16 µM) was 54.9 nM and the IC50 (second compound 10 µM) was 45.5 nM. The viability, T/C (second compound 0.0316 µM, first compound 0.00316 µM) was 95.1%, the viability, T/C (second compound 0.0316 µM, first compound 0.01 µM) was 122% and the viability, T/C [1] was 54.7%. The viability, T/C [2] was 34.4%, the viability, T/C [3] was 10.4% and the viability, T/C [4] was 7.92%. For the same compound, the viability, T/C (second compound 0.1 µM, first compound 0.00316 µM) was 111%, the viability, T/C (second compound 0.1 µM, first compound 0.01 µM) was 99.2% and the viability, T/C [7] was 72.4%. The viability, T/C [8] was 35.2%, the viability, T/C [9] was 9.41% and the viability, T/C [10] was 8.83%. For the same compound, the viability, T/C (second compound 0.316 µM, first compound 0.00316 µM) was 102%, the viability, T/C (second compound 0.316 µM, first compound 0.01 µM) was 92.4% and the viability, T/C [13] was 44.1%. For the same compound, the viability, T/C [14] was 28.3%, the viability, T/C [15] was 8.42% and the viability, T/C [16] was 8.2%. For the same compound, the viability, T/C (second compound 1 µM, first compound 0.00316 µM) was 117%, the viability, T/C (second compound 1 µM, first compound 0.01 µM) was 83.2% and the viability, T/C [19] was 62.1%. For the same compound, the viability, T/C [20] was 23.2%, the viability, T/C [21] was 10.4% and the viability, T/C [22] was 7.61%. It also gave a viability, T/C (second compound 3.16 µM, first compound 0.00316 µM) of 93.1%, a viability, T/C (second compound 3.16 µM, first compound 0.01 µM) of 71% and a viability, T/C [25] of 76.5%. For the same compound, the viability, T/C [26] was 21.5%, the viability, T/C [27] was 10.1% and the viability, T/C [28] was 8.73%. The viability, T/C (second compound 10 µM, first compound 0.00316 µM) was 80.4%, the viability, T/C (second compound 10 µM, first compound 0.01 µM) was 88.1% and the viability, T/C [31] was 66.1%. It also gave a viability, T/C [32] of 15.1%, a viability, T/C [33] of 11.3% and a viability, T/C [34] of 12.5%.

Work on `O=C(c1cc(Cc2n[nH]c(=O)c3ccccc23)ccc1F)N1CCN(C(=O)C2CC2)CC1` + COC1C(OC(N)=O)C(O)C(Oc2ccc3c(O)c(NC(=O)c4ccc(O)c(CC=C(C)C)c4)c(=O)oc3c2C)OC1(C)C yielded an IC50 (second compound 0.0316 µM) of over 10000 nM, an IC50 (second compound 0.1 µM) of over 10000 nM and an IC50 (second compound 0.316 µM) of over 10000 nM. It also gave an IC50 (second compound 1 µM) of over 10000 nM, an IC50 (second compound 3.16 µM) of over 10000 nM and an IC50 (second compound 10 µM) of over 10000 nM. For the same compound, the viability, T/C [1] was 83.4%, the viability, T/C [2] was 89.7% and the viability, T/C [3] was 87.5%. The viability, T/C [4] was 110%, the viability, T/C [5] was 79.9% and the viability, T/C [6] was 64.6%. The viability, T/C [7] was 101%, the viability, T/C [8] was 99.1% and the viability, T/C [9] was 95.9%. The viability, T/C [10] was 90.8%, the viability, T/C [11] was 80.8% and the viability, T/C [12] was 58%. For the same compound, the viability, T/C [13] was 78.4%, the viability, T/C [14] was 98.6% and the viability, T/C [15] was 90.3%. For the same compound, the viability, T/C [16] was 77.4%, the viability, T/C [17] was 88.7% and the viability, T/C [18] was 85.2%. For the same compound, the viability, T/C [19] was 76.7%, the viability, T/C [20] was 84.6% and the viability, T/C [21] was 102%. The viability, T/C [22] was 87.5%, the viability, T/C [23] was 94.5% and the viability, T/C [24] was 79.4%. It also gave a viability, T/C [25] of 119%, a viability, T/C [26] of 85% and a viability, T/C [27] of 107%. The viability, T/C [28] was 75.9%, the viability, T/C [29] was 64.6% and the viability, T/C [30] was 84%. The viability, T/C [31] was 94.9%, the viability, T/C [32] was 102% and the viability, T/C [33] was 80.3%. The viability, T/C [34] was 83.8%, the viability, T/C [35] was 81.7% and the viability, T/C [36] was 69.5%.

Compound `COc1cc2cc(C(=O)CCC(=O)O)sc2cc1OC` + Nc1ccc(C#CCN(C(=O)Cc2ncc(C(F)(F)F)cc2C(F)(F)F)c2ccc(F)cc2)nn1 has an IC50 (second compound 0.0316 µM) of over 10000 nM, an IC50 (second compound 0.1 µM) of over 10000 nM and an IC50 (second compound 0.316 µM) of over 10000 nM. For the same compound, the IC50 (second compound 1 µM) was over 10000 nM, the IC50 (second compound 3.16 µM) was over 10000 nM and the IC50 (second compound 10 µM) was over 10000 nM. It also gave a viability, T/C [1] of 102%, a viability, T/C [2] of 101% and a viability, T/C [3] of 101%. The viability, T/C [4] was 93.6%, the viability, T/C [5] was 87.7% and the viability, T/C [6] was 84.5%. For the same compound, the viability, T/C [7] was 99%, the viability, T/C [8] was 92% and the viability, T/C [9] was 95.5%. For the same compound, the viability, T/C [10] was 108%, the viability, T/C [11] was 81.7% and the viability, T/C [12] was 87%. For the same compound, the viability, T/C [13] was 108%, the viability, T/C [14] was 102% and the viability, T/C [15] was 89.5%. It also gave a viability, T/C [16] of 106%, a viability, T/C [17] of 113% and a viability, T/C [18] of 108%. It also gave a viability, T/C [19] of 89.6%, a viability, T/C [20] of 114% and a viability, T/C [21] of 78.4%. It also gave a viability, T/C [22] of 81.7%, a viability, T/C [23] of 110% and a viability, T/C [24] of 112%. The viability, T/C [25] was 108%, the viability, T/C [26] was 90.9% and the viability, T/C [27] was 84.1%. For the same compound, the viability, T/C [28] was 105%, the viability, T/C [29] was 103% and the viability, T/C [30] was 81.1%. For the same compound, the viability, T/C [31] was 101%, the viability, T/C [32] was 95.8% and the viability, T/C [33] was 101%. For the same compound, the viability, T/C [34] was 103%, the viability, T/C [35] was 82% and the viability, T/C [36] was 74.5%.
